# Laboratory results reported in paper PMC11861159, “Design, synthesis, and in vitro, in vivo, and in silico evaluation of novel substituted 1,3,4-thiadiazole derivatives as anticonvulsant agents” (Frontiers in Chemistry, 2025).
# Tests used:
# induced seizures = experiment: Anticonvulsant screening (MES and sc-PTZ), outcome recovery/death
# PTZ-induced seizures = experiment: Subcutaneous pentylenetetrazole (sc-PTZ) test; format: in vivo, male Swiss albino mice; details: for Minimum active dose (mg/kg) Sc-PTZ 0.5 h / Minimum active dose (mg/kg) Sc-PTZ 4 h: oral, lowest dose active in half or more of the mice, n = 6;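 for % protection Sc-PTZ 0.5 h: percent reduction of the test group versus the control group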;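 for % protection Sc-PTZ 4 h: percent reduction of the test group versus the control group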
# mice = experiment: Rotarod neurotoxicity screening; format: in vivo, male Swiss albino mice; details: for Neurotoxicity (rotarod test), result in words: at the highest dose (300 mg/kg); for Neurotoxicity dose (mg/kg) 0.5 h / Neurotoxicity dose (mg/kg) 4 h: rotarod, oral doses 30, 100, 300 mg/kg
# Method: The rotarod test, as described in the literature, was used to evaluate neurotoxicity (NT) in mice. In brief, six mice (one group) were trained to balance on a spinning rod (3 cm diameter and 6 rpm speed) to familiarize with the rotarod apparatus (Orchid Scientific, India). Each mouse underwent three trials to remain on the rotating rod for over 1 minute, with the experiment’s cutoff time (180 s) remaining constant. Different pre-oral (p.o.) doses of test and standard substances were administered to the trained animals.
# MES-induced seizures = experiment: Maximal electroshock-induced seizure (MES) test; format: in vivo, male Swiss albino mice; details: for Minimum active dose (mg/kg) MES 0.5 h / Minimum active dose (mg/kg) MES 4 h: oral, lowest dose active in half or more of the mice, n = 6;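 for % protection MES 0.5 h: percent reduction of the test group versus the control group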;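 for % protection MES 4 h: percent reduction of the test group versus the control group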
# [1] = biological target: T1, human carbonic anhydrase IX (Homo sapiens, UniProt Q16790); experiment: Human carbonic anhydrase IX colorimetric (p-nitrophenyl acetate) inhibition assay; format: biochemical; details: mean ± SEM, three independent experiments in triplicate; read-out: CA IX (IC50)
# T1 construct: purchased Sino Biological Inc, Beijing, China
# Method: (§1) In brief, the reaction mixture contained 60 μL of 50 mM Tris-sulfate buffer (pH 7.6, containing 0.1 mM ZnCl2),10 μL (0.5 mM) of the test compound in 1% DMSO, and 10 μL of human carbonic anhydrase II and IX (Sino Biological Inc, Beijing, China). All the ingredients were mixed well and pre-incubated at 25°C for 10 min. Substrate p-nitrophenyl acetate was prepared as a 6 mM stock solution using 5% of acetonitrile in buffer and was used fresh. […] The total assay volume was adjusted to 100 μL and further incubated at 37°C for 30 min. Furthermore, all the ingredients were mixed properly, and absorbance was measured. […] The results reported are the mean of triplicate experiments (±SEM) and expressed IC50 values, which were calculated.
# [2] = biological target: T2, human carbonic anhydrase II (Homo sapiens, UniProt P00918); experiment: Human carbonic anhydrase II colorimetric (p-nitrophenyl acetate) inhibition assay; format: biochemical; details: mean ± SEM, three independent experiments in triplicate; read-out: CA II (IC50)
# T2 construct: purchased Sino Biological Inc, Beijing, China
# Method: as §1
structure (smiles),measurement,setting,value
"CC(=O)Nc1nnc(S(N)(=O)=O)s1 [Acetazolamide, reference compound]",Recovery/death,induced seizures; 100 mg/kg oral,Recovery
same,% protection Sc-PTZ 0.5 h,PTZ-induced seizures; 100 mg/kg oral,73.13%
same,% protection Sc-PTZ 4 h,PTZ-induced seizures; 100 mg/kg oral,58.46%
same,Minimum active dose (mg/kg) Sc-PTZ 0.5 h,PTZ-induced seizures,100 mg/kg
same,Minimum active dose (mg/kg) Sc-PTZ 4 h,PTZ-induced seizures,100 mg/kg
same,"Neurotoxicity (rotarod test), result in words",mice,no neurotoxicity
same,Neurotoxicity dose (mg/kg) 0.5 h,mice,- (The indication - (dash) denotes a lack of action at the maximum dose supplied (300 mg/kg))
same,Neurotoxicity dose (mg/kg) 4 h,mice,- (The indication - (dash) denotes a lack of action at the maximum dose supplied (300 mg/kg))
same,% protection MES 0.5 h,MES-induced seizures; 100 mg/kg oral,66.15%
same,% protection MES 4 h,MES-induced seizures; 100 mg/kg oral,58.46%
same,Minimum active dose (mg/kg) MES 0.5 h,MES-induced seizures,100 mg/kg
same,Minimum active dose (mg/kg) MES 4 h,MES-induced seizures,100 mg/kg
"O=C(Nc1nncs1)c1cccc(OCCN2CCOCC2)c1 [Compound 6a, 3-(2-morpholinoethoxy)-N-(1,3,4-thiadiazol-2-yl)benzamide]",Recovery/death,induced seizures; 30 mg/kg oral,Recovery
same,Recovery/death,induced seizures; 100 mg/kg oral,Recovery
same,Recovery/death,induced seizures; 300 mg/kg oral,Recovery
same,IC50,[1],400 ± 50 nM
same,% protection Sc-PTZ 4 h,PTZ-induced seizures; 300 mg/kg oral,19.08%
same,Minimum active dose (mg/kg) Sc-PTZ 0.5 h,PTZ-induced seizures,- (The indication - (dash) denotes a lack of action at the maximum dose supplied (300 mg/kg))
same,Minimum active dose (mg/kg) Sc-PTZ 4 h,PTZ-induced seizures,300 mg/kg
same,Neurotoxicity dose (mg/kg) 0.5 h,mice,- (The indication - (dash) denotes a lack of action at the maximum dose supplied (300 mg/kg))
same,Neurotoxicity dose (mg/kg) 4 h,mice,- (The indication - (dash) denotes a lack of action at the maximum dose supplied (300 mg/kg))
same,% protection MES 0.5 h,MES-induced seizures; 100 mg/kg oral,18.46%
same,% protection MES 0.5 h,MES-induced seizures; 300 mg/kg oral,30.76%
same,% protection MES 4 h,MES-induced seizures; 300 mg/kg oral,43.07%
same,Minimum active dose (mg/kg) MES 0.5 h,MES-induced seizures,100 mg/kg
same,Minimum active dose (mg/kg) MES 4 h,MES-induced seizures,300 mg/kg
"O=C(Nc1nncs1)c1cccc(OCCN2CCCCC2)c1 [Compound 6b, 3-(2-(piperidin-1-yl)ethoxy)-N-(1,3,4-thiadiazol-2-yl)benzamide]",Recovery/death,induced seizures; 30 mg/kg oral,Recovery
same,Recovery/death,induced seizures; 100 mg/kg oral,Recovery
same,Recovery/death,induced seizures; 300 mg/kg oral,Recovery
same,IC50,[1],230 ± 40 nM
same,% protection Sc-PTZ 0.5 h,PTZ-induced seizures; 300 mg/kg oral,10.20%
same,% protection Sc-PTZ 4 h,PTZ-induced seizures; 300 mg/kg oral,34.17%
same,Minimum active dose (mg/kg) Sc-PTZ 0.5 h,PTZ-induced seizures,300 mg/kg
same,Minimum active dose (mg/kg) Sc-PTZ 4 h,PTZ-induced seizures,300 mg/kg
same,Neurotoxicity dose (mg/kg) 0.5 h,mice,- (The indication - (dash) denotes a lack of action at the maximum dose supplied (300 mg/kg))
same,Neurotoxicity dose (mg/kg) 4 h,mice,- (The indication - (dash) denotes a lack of action at the maximum dose supplied (300 mg/kg))
same,% protection MES 0.5 h,MES-induced seizures; 100 mg/kg oral,30.76%
same,% protection MES 0.5 h,MES-induced seizures; 300 mg/kg oral,41.53%
same,% protection MES 4 h,MES-induced seizures; 300 mg/kg oral,50.76%
same,Minimum active dose (mg/kg) MES 0.5 h,MES-induced seizures,100 mg/kg
same,Minimum active dose (mg/kg) MES 4 h,MES-induced seizures,300 mg/kg
"O=C(Nc1nncs1)c1cccc(OCCN2CCCC2)c1 [Compound 6c, 3-(2-(pyrrolidin-1-yl)ethoxy)-N-(1,3,4-thiadiazol-2-yl)benzamide]",Recovery/death,induced seizures; 30 mg/kg oral,Recovery
same,Recovery/death,induced seizures; 100 mg/kg oral,Recovery
same,Recovery/death,induced seizures; 300 mg/kg oral,Recovery
same,IC50,[1],470 ± 20 nM
same,% protection Sc-PTZ 0.5 h,PTZ-induced seizures; 100 mg/kg oral,33.81%
same,% protection Sc-PTZ 0.5 h,PTZ-induced seizures; 300 mg/kg oral,29.26%
same,% protection Sc-PTZ 4 h,PTZ-induced seizures; 300 mg/kg oral,40.21%
same,Minimum active dose (mg/kg) Sc-PTZ 0.5 h,PTZ-induced seizures,100 mg/kg
same,Minimum active dose (mg/kg) Sc-PTZ 4 h,PTZ-induced seizures,300 mg/kg
same,Neurotoxicity dose (mg/kg) 0.5 h,mice,- (The indication - (dash) denotes a lack of action at the maximum dose supplied (300 mg/kg))
same,Neurotoxicity dose (mg/kg) 4 h,mice,- (The indication - (dash) denotes a lack of action at the maximum dose supplied (300 mg/kg))
same,% protection MES 0.5 h,MES-induced seizures; 100 mg/kg oral,26.15%
same,% protection MES 4 h,MES-induced seizures; 100 mg/kg oral,35.38%
same,% protection MES 0.5 h,MES-induced seizures; 300 mg/kg oral,38.46%
same,% protection MES 4 h,MES-induced seizures; 300 mg/kg oral,46.13%
same,Minimum active dose (mg/kg) MES 0.5 h,MES-induced seizures,100 mg/kg
same,Minimum active dose (mg/kg) MES 4 h,MES-induced seizures,100 mg/kg
"CN(C)CCOc1cccc(C(=O)Nc2nncs2)c1 [Compound 6e, 3-(2-(dimethylamino)ethoxy)-N-(1,3,4-thiadiazol-2-yl)benzamide]",Recovery/death,induced seizures; 30 mg/kg oral,Recovery
same,Recovery/death,induced seizures; 100 mg/kg oral,Recovery
same,Recovery/death,induced seizures; 300 mg/kg oral,Recovery
same,IC50,[2],230 ± 20 nM
same,IC50,[1],210 ± 40 nM
same,% protection Sc-PTZ 0.5 h,PTZ-induced seizures; 30 mg/kg oral,39.02%
same,% protection Sc-PTZ 0.5 h,PTZ-induced seizures; 100 mg/kg oral,32.39%
same,% protection Sc-PTZ 4 h,PTZ-induced seizures; 100 mg/kg oral,63.58%
same,% protection Sc-PTZ 0.5 h,PTZ-induced seizures; 300 mg/kg oral,46.55%
same,% protection Sc-PTZ 4 h,PTZ-induced seizures; 300 mg/kg oral,74.2%
same,Minimum active dose (mg/kg) Sc-PTZ 0.5 h,PTZ-induced seizures,30 mg/kg
same,Minimum active dose (mg/kg) Sc-PTZ 4 h,PTZ-induced seizures,100 mg/kg
same,Neurotoxicity dose (mg/kg) 0.5 h,mice,- (The indication - (dash) denotes a lack of action at the maximum dose supplied (300 mg/kg))
same,Neurotoxicity dose (mg/kg) 4 h,mice,- (The indication - (dash) denotes a lack of action at the maximum dose supplied (300 mg/kg))
same,% protection MES 0.5 h,MES-induced seizures; 30 mg/kg oral,38.46%
same,% protection MES 0.5 h,MES-induced seizures; 100 mg/kg oral,32.3%
same,% protection MES 4 h,MES-induced seizures; 100 mg/kg oral,55.38%
same,% protection MES 0.5 h,MES-induced seizures; 300 mg/kg oral,46.15%
same,% protection MES 4 h,MES-induced seizures; 300 mg/kg oral,73.83%
same,Minimum active dose (mg/kg) MES 0.5 h,MES-induced seizures,30 mg/kg
same,Minimum active dose (mg/kg) MES 4 h,MES-induced seizures,100 mg/kg
"COc1ccc(C(=O)Nc2nncs2)cc1OCCN1CCOCC1 [Compound 7a, 4-Methoxy-3-(2-morpholinoethoxy)-N-(1,3,4-thiadiazol-2-yl)benzamide]",Recovery/death,induced seizures; 30 mg/kg oral,Recovery
same,Recovery/death,induced seizures; 100 mg/kg oral,Recovery
same,Recovery/death,induced seizures; 300 mg/kg oral,Recovery
same,IC50,[2],970 ± 50 nM
same,IC50,[1],880 ± 40 nM
same,% protection Sc-PTZ 0.5 h,PTZ-induced seizures; 300 mg/kg oral,16.64%
same,% protection Sc-PTZ 4 h,PTZ-induced seizures; 300 mg/kg oral,15.38%
same,Minimum active dose (mg/kg) Sc-PTZ 0.5 h,PTZ-induced seizures,300 mg/kg
same,Minimum active dose (mg/kg) Sc-PTZ 4 h,PTZ-induced seizures,300 mg/kg
same,% protection MES 0.5 h,MES-induced seizures; 100 mg/kg oral,16.92%
same,% protection MES 4 h,MES-induced seizures; 300 mg/kg oral,40%
same,Minimum active dose (mg/kg) MES 0.5 h,MES-induced seizures,100 mg/kg
same,Minimum active dose (mg/kg) MES 4 h,MES-induced seizures,300 mg/kg
"COc1ccc(C(=O)Nc2nncs2)cc1OCCN1CCCCC1 [Compound 7b, 4-Methoxy-3-(2-(piperidin-1-yl)ethoxy)-N-(1,3,4-thiadiazol-2-yl)benzamide]",Recovery/death,induced seizures; 30 mg/kg oral,Recovery
same,Recovery/death,induced seizures; 100 mg/kg oral,Recovery
same,Recovery/death,induced seizures; 300 mg/kg oral,Recovery
same,IC50,[2],740 ± 30 nM
same,IC50,[1],730 ± 20 nM
same,% protection Sc-PTZ 0.5 h,PTZ-induced seizures; 300 mg/kg oral,23.07%
same,% protection Sc-PTZ 4 h,PTZ-induced seizures; 300 mg/kg oral,32.21%
same,Minimum active dose (mg/kg) Sc-PTZ 0.5 h,PTZ-induced seizures,300 mg/kg
same,Minimum active dose (mg/kg) Sc-PTZ 4 h,PTZ-induced seizures,300 mg/kg
same,% protection MES 0.5 h,MES-induced seizures; 100 mg/kg oral,29.23%
same,% protection MES 4 h,MES-induced seizures; 300 mg/kg oral,47.69%
same,Minimum active dose (mg/kg) MES 0.5 h,MES-induced seizures,100 mg/kg
same,Minimum active dose (mg/kg) MES 4 h,MES-induced seizures,300 mg/kg
"CCCC(CCC)C(=O)O [Sodium valproate, reference compound]",Recovery/death,induced seizures; 300 mg/kg oral,Recovery
same,% protection Sc-PTZ 0.5 h,PTZ-induced seizures; 300 mg/kg oral,77.72%
same,% protection Sc-PTZ 4 h,PTZ-induced seizures; 300 mg/kg oral,63.03%
same,Minimum active dose (mg/kg) Sc-PTZ 0.5 h,PTZ-induced seizures,300 mg/kg
same,Minimum active dose (mg/kg) Sc-PTZ 4 h,PTZ-induced seizures,300 mg/kg
same,"Neurotoxicity (rotarod test), result in words",mice,no neurotoxicity
same,Neurotoxicity dose (mg/kg) 0.5 h,mice,- (The indication - (dash) denotes a lack of action at the maximum dose supplied (300 mg/kg))
same,Neurotoxicity dose (mg/kg) 4 h,mice,- (The indication - (dash) denotes a lack of action at the maximum dose supplied (300 mg/kg))
same,% protection MES 0.5 h,MES-induced seizures; 300 mg/kg oral,72.30%
same,% protection MES 4 h,MES-induced seizures; 300 mg/kg oral,63.07%
same,Minimum active dose (mg/kg) MES 0.5 h,MES-induced seizures,300 mg/kg
same,Minimum active dose (mg/kg) MES 4 h,MES-induced seizures,300 mg/kg
